Measured values as given in ChEMBL document CHEMBL1133669 (J Med Chem, 2000).

target: Carbonic anhydrase 1 (Homo sapiens, UniProt P00915)
Sequence (P00915 whole entry): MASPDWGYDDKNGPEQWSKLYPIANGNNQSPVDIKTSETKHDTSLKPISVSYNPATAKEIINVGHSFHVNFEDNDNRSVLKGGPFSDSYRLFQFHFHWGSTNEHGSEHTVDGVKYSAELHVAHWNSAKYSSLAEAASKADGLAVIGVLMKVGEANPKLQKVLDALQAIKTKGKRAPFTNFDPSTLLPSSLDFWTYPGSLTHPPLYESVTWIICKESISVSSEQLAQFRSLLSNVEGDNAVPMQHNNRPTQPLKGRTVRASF
Description: Inhibitory activity against human carbonic anhydrase I (CA1)

Row | Ki [nM] | SMILES
1 | 11 | CCc1cc(-c2ccccc2)cc(CC)[n+]1CC(=O)Oc1ccc2nc(S(N)(=O)=O)sc2c1
2 | 750 | CCc1cc(-c2ccccc2)cc(CC)[n+]1CC(=O)Nc1ccc(S(N)(=O)=O)cc1F
3 | 30500 | CC(C)c1cc(-c2ccccc2)cc(C(C)C)[n+]1CC(=O)Nc1ccccc1S(N)(=O)=O
4 | 15 | Cc1cc(C)[n+](CC(=O)Nc2ccc(S(=O)(=O)Nc3nnc(S(N)(=O)=O)s3)cc2)c(C)c1
5 | 15 | Cc1cc(C)[n+](CC(=O)Nc2ccc(S(=O)(=O)/N=c3/sc(S(N)(=O)=O)nn3C)cc2)c(C)c1
6 | 750 | CC(C)c1cc(-c2ccccc2)cc(C(C)C)[n+]1CC(=O)Nc1ccc(S(N)(=O)=O)cc1F
7 | 750 | CCc1cc(-c2ccccc2)cc(CC)[n+]1CC(=O)NCCc1ccc(S(N)(=O)=O)cc1
8 | 680 | Cc1cc(C)[n+](CC(=O)Nc2ccc(S(N)(=O)=O)cc2Cl)c(C)c1
9 | 630 | CC(C)c1cc(-c2ccccc2)cc(C(C)C)[n+]1CC(=O)Nc1ccc(S(N)(=O)=O)cc1I
10 | 1250 | Cc1cc(-c2ccccc2)cc(C)[n+]1CC(=O)NCc1ccc(S(N)(=O)=O)cc1
11 | 11 | Cc1cc(-c2ccccc2)cc(C)[n+]1CC(=O)Oc1ccc2nc(S(N)(=O)=O)sc2c1
12 | 10 | CCc1cc(-c2ccccc2)cc(CC)[n+]1CC(=O)OCCOc1ccc2nc(S(N)(=O)=O)sc2c1
13 | 1500 | CCc1cc(-c2ccccc2)cc(CC)[n+]1CC(=O)OCCc1ccc(S(N)(=O)=O)cc1
14 | 1 | Cn1nc(S(N)(=O)=O)s/c1=N/S(=O)(=O)c1ccc(N)cc1
15 | 55 | Cc1cc(C)[n+](CC(=O)Nc2ccc(S(=O)(=O)Nc3ccc(S(N)(=O)=O)cc3)cc2)c(C)c1
16 | 300 | Cc1cc(C)[n+](CC(=O)Nc2nnc(S(N)(=O)=O)s2)c(C)c1
17 | 1650 | CC(C)c1cc(-c2ccccc2)cc(C(C)C)[n+]1CC(=O)OCCc1ccc(S(N)(=O)=O)cc1
18 | 10 | Cc1cc(-c2ccccc2)cc(C)[n+]1CC(=O)Nc1ccc(S(=O)(=O)Nc2nnc(S(N)(=O)=O)s2)cc1
19 | 1400 | CCc1cc(-c2ccccc2)cc(CC)[n+]1CC(=O)NCc1ccc(S(N)(=O)=O)cc1
20 | 330 | Cc1cc(C)[n+](CC(=O)/N=c2/sc(S(N)(=O)=O)nn2C)c(C)c1
21 | 21800 | CCc1cc(-c2ccccc2)cc(CC)[n+]1CC(=O)Nc1cccc(S(N)(=O)=O)c1
22 | 550 | Cc1cc(C)[n+](CC(=O)Nc2c(S(N)(=O)=O)cc(S(N)(=O)=O)c(Cl)c2Cl)c(C)c1
23 | 52 | Cc1cc(C)[n+](CC(=O)Nc2nccc(Nc3ccc(S(N)(=O)=O)cc3)n2)c(C)c1
24 | 13 | CC(C)c1cc(-c2ccccc2)cc(C(C)C)[n+]1CC(=O)Nc1ccc2nc(S(N)(=O)=O)sc2c1
25 | 1700 | Cc1cc(C)[n+](CC(=O)OCCc2ccc(S(N)(=O)=O)cc2)c(C)c1
26 | 610 | CCc1cc(-c2ccccc2)cc(CC)[n+]1CC(=O)Nc1ccc(S(N)(=O)=O)cc1Cl

target: T1, Carbonic anhydrase 4 (Bos taurus, UniProt Q95323)
T1 sequence (Q95323 whole entry): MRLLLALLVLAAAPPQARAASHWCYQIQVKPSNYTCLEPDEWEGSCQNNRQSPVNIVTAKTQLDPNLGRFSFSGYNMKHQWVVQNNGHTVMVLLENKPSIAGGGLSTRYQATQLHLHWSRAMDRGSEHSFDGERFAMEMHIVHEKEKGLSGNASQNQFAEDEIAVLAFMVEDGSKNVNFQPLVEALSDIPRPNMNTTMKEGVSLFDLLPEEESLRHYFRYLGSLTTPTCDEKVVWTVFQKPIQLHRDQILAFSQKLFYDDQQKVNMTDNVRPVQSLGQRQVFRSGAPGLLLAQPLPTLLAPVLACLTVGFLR
Description: Inhibitory activity against bovine carbonic anhydrase IV (CA4), isolated from bovine lung microsomes

Row | Ki [nM] | SMILES
27 | 27 | CCc1cc(-c2ccccc2)cc(CC)[n+]1CC(=O)Oc1ccc2nc(S(N)(=O)=O)sc2c1
28 | 16 | CC(C)c1cc(-c2ccccc2)cc(C(C)C)[n+]1CC(=O)NCCC(=O)Nc1nnc(S(N)(=O)=O)s1
29 | 39 | CCc1cc(-c2ccccc2)cc(CC)[n+]1CC(=O)Nc1ccc(S(N)(=O)=O)cc1F
30 | 350 | CC(C)c1cc(-c2ccccc2)cc(C(C)C)[n+]1CC(=O)Nc1ccccc1S(N)(=O)=O
31 | 12 | Cc1cc(C)[n+](CC(=O)Nc2ccc(S(=O)(=O)Nc3nnc(S(N)(=O)=O)s3)cc2)c(C)c1
32 | 39 | CC(C)c1cc(-c2ccccc2)cc(C(C)C)[n+]1CC(=O)Nc1ccc(S(N)(=O)=O)cc1F
33 | 61 | CCc1cc(-c2ccccc2)cc(CC)[n+]1CC(=O)NCCc1ccc(S(N)(=O)=O)cc1
34 | 36 | CC(C)c1cc(-c2ccccc2)cc(C(C)C)[n+]1CC(=O)Nc1nnc(S(N)(=O)=O)s1
35 | 70 | Cc1cc(C)[n+](CC(=O)Nc2ccc(S(N)(=O)=O)cc2Cl)c(C)c1
36 | 75 | CC(C)c1cc(-c2ccccc2)cc(C(C)C)[n+]1CC(=O)Nc1ccc(S(N)(=O)=O)cc1I
37 | 19 | CCc1cc(-c2ccccc2)cc(CC)[n+]1CC(=O)NCCC(=O)Nc1nnc(S(N)(=O)=O)s1
38 | 50 | Cc1cc(-c2ccccc2)cc(C)[n+]1CC(=O)NCc1ccc(S(N)(=O)=O)cc1
39 | 17 | Cc1cc(-c2ccccc2)cc(C)[n+]1CC(=O)Oc1ccc2nc(S(N)(=O)=O)sc2c1
40 | 25 | CCc1cc(-c2ccccc2)cc(CC)[n+]1CC(=O)OCCOc1ccc2nc(S(N)(=O)=O)sc2c1
41 | 84 | CCc1cc(-c2ccccc2)cc(CC)[n+]1CC(=O)OCCc1ccc(S(N)(=O)=O)cc1
42 | 0.8 | Cn1nc(S(N)(=O)=O)s/c1=N/S(=O)(=O)c1ccc(N)cc1
43 | 78 | Cc1cc(C)[n+](CC(=O)Nc2ccc(S(=O)(=O)Nc3ccc(S(N)(=O)=O)cc3)cc2)c(C)c1
44 | 50 | Cc1cc(C)[n+](CC(=O)Nc2nnc(S(N)(=O)=O)s2)c(C)c1
45 | 115 | CC(C)c1cc(-c2ccccc2)cc(C(C)C)[n+]1CC(=O)OCCc1ccc(S(N)(=O)=O)cc1
46 | 9 | Cc1cc(-c2ccccc2)cc(C)[n+]1CC(=O)Nc1ccc(S(=O)(=O)Nc2nnc(S(N)(=O)=O)s2)cc1
47 | 67 | CCc1cc(-c2ccccc2)cc(CC)[n+]1CC(=O)NCc1ccc(S(N)(=O)=O)cc1
48 | 60 | Cc1cc(C)[n+](CC(=O)/N=c2/sc(S(N)(=O)=O)nn2C)c(C)c1
49 | 310 | CCc1cc(-c2ccccc2)cc(CC)[n+]1CC(=O)Nc1cccc(S(N)(=O)=O)c1
50 | 67 | Cc1cc(C)[n+](CC(=O)Nc2c(S(N)(=O)=O)cc(S(N)(=O)=O)c(Cl)c2Cl)c(C)c1
51 | 69 | Cc1cc(C)[n+](CC(=O)Nc2nccc(Nc3ccc(S(N)(=O)=O)cc3)n2)c(C)c1
52 | 38 | CC(C)c1cc(-c2ccccc2)cc(C(C)C)[n+]1CC(=O)Nc1ccc2nc(S(N)(=O)=O)sc2c1
53 | 130 | Cc1cc(C)[n+](CC(=O)OCCc2ccc(S(N)(=O)=O)cc2)c(C)c1
54 | 46 | CCc1cc(-c2ccccc2)cc(CC)[n+]1CC(=O)Nc1ccc(S(N)(=O)=O)cc1Cl
55 | 15 | Cc1cc(-c2ccccc2)cc(C)[n+]1CC(=O)NCCC(=O)Nc1nnc(S(N)(=O)=O)s1
56 | 140 | Nc1cc(C(F)(F)F)c(S(N)(=O)=O)cc1S(N)(=O)=O [2,4-DISULFAMYLTRIFLUOROMETHYLANILINE]
